Measured values reported in PubChem BioAssay (NCI).
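Cultured in 96-well plates, cells were exposed to test compound for 48 hours across five concentrations. GI50: concentration for 50% inhibition of growth. TGI: concentration producing complete growth inhibition.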

Columns and labels:
Experiment in all cases: NCI tumour cell line growth inhibition, 48 h
OVCAR-5 ovarian = tested on: OVCAR-5 ovarian
NCI-H23 lung = tested on: NCI-H23 lung
HL-60(TB) leukemia = tested on: HL-60(TB) leukemia
OVCAR-3 ovarian = tested on: OVCAR-3 ovarian
MDA-MB-468 breast = tested on: MDA-MB-468 breast
HCT-15 colon = tested on: HCT-15 colon
CCRF-CEM leukemia = tested on: CCRF-CEM leukemia
MCF7 breast = tested on: MCF7 breast
HCC-2998 colon = tested on: HCC-2998 colon
PC-3 prostate = tested on: PC-3 prostate
SR leukemia = tested on: SR leukemia
IGROV1 ovarian = tested on: IGROV1 ovarian
ACHN renal = tested on: ACHN renal
EKVX NSCLC = tested on: EKVX NSCLC
DU-145 prostate = tested on: DU-145 prostate
MDA-MB-435 = tested on: MDA-MB-435
NCI-H226 lung = tested on: NCI-H226 lung
TK-10 renal = tested on: TK-10 renal
T-47D breast = tested on: T-47D breast
SNB-75 CNS = tested on: SNB-75 CNS
MOLT-4 leukemia = tested on: MOLT-4 leukemia
HOP-62 NSCLC = tested on: HOP-62 NSCLC
RXF 393 renal = tested on: RXF 393 renal
KM12 colon = tested on: KM12 colon
SK-MEL-28 melanoma = tested on: SK-MEL-28 melanoma
SK-MEL-2 melanoma = tested on: SK-MEL-2 melanoma
OVCAR-8 ovarian = tested on: OVCAR-8 ovarian
U251 CNS = tested on: U251 CNS
NCI-H460 lung = tested on: NCI-H460 lung
HS 578T breast = tested on: HS 578T breast
UO-31 renal = tested on: UO-31 renal
SF-295 CNS = tested on: SF-295 CNS
SW-620 colon = tested on: SW-620 colon
HCT-116 colon = tested on: HCT-116 colon
NCI/ADR-RES ovarian = tested on: NCI/ADR-RES ovarian
HOP-92 NSCLC = tested on: HOP-92 NSCLC
M14 melanoma = tested on: M14 melanoma
SN12C renal = tested on: SN12C renal
CAKI-1 renal = tested on: CAKI-1 renal
MALME-3M melanoma = tested on: MALME-3M melanoma
UACC-62 melanoma = tested on: UACC-62 melanoma
RPMI-8226 leukemia = tested on: RPMI-8226 leukemia
MDA-MB-231 breast = tested on: MDA-MB-231 breast
LOX IMVI melanoma = tested on: LOX IMVI melanoma
BT-549 breast = tested on: BT-549 breast
SF-539 CNS = tested on: SF-539 CNS
A549 NSCLC = tested on: A549 NSCLC
NCI-H522 lung = tested on: NCI-H522 lung
SNB-19 CNS = tested on: SNB-19 CNS
HT29 colon = tested on: HT29 colon
K-562 leukemia = tested on: K-562 leukemia
SK-OV-3 ovarian = tested on: SK-OV-3 ovarian
SK-MEL-5 melanoma = tested on: SK-MEL-5 melanoma
SF-268 CNS = tested on: SF-268 CNS
A498 renal = tested on: A498 renal
UACC-257 melanoma = tested on: UACC-257 melanoma
786-0 renal = tested on: 786-0 renal
OVCAR-4 ovarian = tested on: OVCAR-4 ovarian

CCCS(=O)(=O)c1oc(-c2ccc(F)cc2)nc1S(=O)(=O)c1ccc(F)cc1 showed a GI50 (OVCAR-5 ovarian) of 3.48 µM, a TGI (OVCAR-5 ovarian) of 13.7 µM and a GI50 (NCI-H23 lung) of 1.9 µM. The TGI (NCI-H23 lung) was 4.22 µM, the GI50 (HL-60(TB) leukemia) was 2.17 µM and the TGI (HL-60(TB) leukemia) was greater than 100 µM. The GI50 (OVCAR-3 ovarian) was 1.35 µM, the TGI (OVCAR-3 ovarian) was 2.77 µM and the GI50 (MDA-MB-468 breast) was 1.29 µM. The TGI (MDA-MB-468 breast) was 2.89 µM, the GI50 (HCT-15 colon) was 1.22 µM and the TGI (HCT-15 colon) was 2.73 µM. For the same molecule, the GI50 (CCRF-CEM leukemia) was 0.298 µM, the TGI (CCRF-CEM leukemia) was 1.09 µM and the GI50 (MCF7 breast) was 1.3 µM. It also gave a TGI (MCF7 breast) of 3.08 µM, a GI50 (HCC-2998 colon) of 4.05 µM and a TGI (HCC-2998 colon) of 15.9 µM. For the same molecule, the GI50 (PC-3 prostate) was 3.51 µM, the TGI (PC-3 prostate) was 16.7 µM and the GI50 (SR leukemia) was 1.6 µM. For the same molecule, the TGI (SR leukemia) was greater than 100 µM, the GI50 (IGROV1 ovarian) was 1.84 µM and the TGI (IGROV1 ovarian) was 3.84 µM. The GI50 (ACHN renal) was 1.61 µM, the TGI (ACHN renal) was 2.96 µM and the GI50 (EKVX NSCLC) was 1.62 µM. The TGI (EKVX NSCLC) was 3.27 µM, the GI50 (DU-145 prostate) was 1.59 µM and the TGI (DU-145 prostate) was 2.96 µM. The GI50 (MDA-MB-435) was 1.45 µM, the TGI (MDA-MB-435) was 2.98 µM and the GI50 (NCI-H226 lung) was 13 µM. For the same molecule, the TGI (NCI-H226 lung) was 34.8 µM, the GI50 (TK-10 renal) was 1.88 µM and the TGI (TK-10 renal) was 3.35 µM. The GI50 (T-47D breast) was 1.83 µM, the TGI (T-47D breast) was 4.2 µM and the GI50 (SNB-75 CNS) was 4.23 µM. It also gave a TGI (SNB-75 CNS) of 18.4 µM, a GI50 (MOLT-4 leukemia) of 1.14 µM and a TGI (MOLT-4 leukemia) greater than 100 µM. It also gave a GI50 (HOP-62 NSCLC) of 15.7 µM, a TGI (HOP-62 NSCLC) of 31.1 µM and a GI50 (RXF 393 renal) of 1.1 µM. For the same molecule, the TGI (RXF 393 renal) was 2.44 µM, the GI50 (KM12 colon) was 14.5 µM and the TGI (KM12 colon) was 31 µM. It also gave a GI50 (SK-MEL-28 melanoma) of 1.74 µM, a TGI (SK-MEL-28 melanoma) of 3.17 µM and a GI50 (SK-MEL-2 melanoma) of 10.4 µM. The TGI (SK-MEL-2 melanoma) was 22.7 µM, the GI50 (OVCAR-8 ovarian) was 2.12 µM and the TGI (OVCAR-8 ovarian) was 4.99 µM. The GI50 (U251 CNS) was 16.4 µM, the TGI (U251 CNS) was 30.6 µM and the GI50 (NCI-H460 lung) was 4.46 µM. The TGI (NCI-H460 lung) was 19.4 µM, the GI50 (HS 578T breast) was 2.33 µM and the TGI (HS 578T breast) was 7.43 µM. For the same molecule, the GI50 (UO-31 renal) was 1.46 µM, the TGI (UO-31 renal) was 2.78 µM and the GI50 (SF-295 CNS) was 12.6 µM. It also gave a TGI (SF-295 CNS) of 25.5 µM, a GI50 (SW-620 colon) of 0.685 µM and a TGI (SW-620 colon) of 2.17 µM. For the same molecule, the GI50 (HCT-116 colon) was 1.6 µM, the TGI (HCT-116 colon) was 3.49 µM and the GI50 (NCI/ADR-RES ovarian) was 2.36 µM. The TGI (NCI/ADR-RES ovarian) was 6.35 µM, the GI50 (HOP-92 NSCLC) was 1.8 µM and the TGI (HOP-92 NSCLC) was 4.08 µM. The GI50 (M14 melanoma) was 1.68 µM, the TGI (M14 melanoma) was 3.56 µM and the GI50 (SN12C renal) was 2.62 µM. It also gave a TGI (SN12C renal) of 9.51 µM, a GI50 (CAKI-1 renal) of 1.43 µM and a TGI (CAKI-1 renal) of 2.76 µM. For the same molecule, the GI50 (MALME-3M melanoma) was 1.49 µM, the TGI (MALME-3M melanoma) was 2.83 µM and the GI50 (UACC-62 melanoma) was 1.68 µM. For the same molecule, the TGI (UACC-62 melanoma) was 3.11 µM, the GI50 (RPMI-8226 leukemia) was 2.22 µM and the TGI (RPMI-8226 leukemia) was 7.44 µM. It also gave a GI50 (MDA-MB-231 breast) of 1.65 µM, a TGI (MDA-MB-231 breast) of 3.04 µM and a GI50 (LOX IMVI melanoma) of 1.28 µM. The TGI (LOX IMVI melanoma) was 2.6 µM, the GI50 (BT-549 breast) was 1.98 µM and the TGI (BT-549 breast) was 3.57 µM. It also gave a GI50 (SF-539 CNS) of 1.55 µM, a TGI (SF-539 CNS) of 2.89 µM and a GI50 (A549 NSCLC) of 13.3 µM. The TGI (A549 NSCLC) was 30.6 µM, the GI50 (NCI-H522 lung) was 1.19 µM and the TGI (NCI-H522 lung) was 2.64 µM. For the same molecule, the GI50 (SNB-19 CNS) was 15 µM, the TGI (SNB-19 CNS) was 28.2 µM and the GI50 (HT29 colon) was 2.06 µM. It also gave a TGI (HT29 colon) of 4.9 µM, a GI50 (K-562 leukemia) of 1.64 µM and a TGI (K-562 leukemia) greater than 100 µM. The GI50 (SK-OV-3 ovarian) was 16.3 µM, the TGI (SK-OV-3 ovarian) was 30.9 µM and the GI50 (SK-MEL-5 melanoma) was 3.32 µM. For the same molecule, the TGI (SK-MEL-5 melanoma) was 12 µM, the GI50 (SF-268 CNS) was 3.18 µM and the TGI (SF-268 CNS) was 14.7 µM. For the same molecule, the GI50 (A498 renal) was 17.2 µM, the TGI (A498 renal) was 31 µM and the GI50 (UACC-257 melanoma) was 1.62 µM. For the same molecule, the TGI (UACC-257 melanoma) was 3.13 µM, the GI50 (786-0 renal) was 1.6 µM and the TGI (786-0 renal) was 3.1 µM. The GI50 (OVCAR-4 ovarian) was 1.86 µM and the TGI (OVCAR-4 ovarian) was 4.04 µM.
